Measurements: patent publication US20160101146A1, “TREATMENT FOR INFECTION WITH HEPATITIS B VIRUS ALONE OR IN COMBINATION WITH HEPATITIS DELTA VIRUS AND ASSOCIATED LIVER DISEASES” (NOVARTIS AG, priority 2011, published 2016)

How the values were obtained:
Hepatitis B virus = conditions: at one year, cited from earlier work; for rate of undetectable HBV DNA: HBeAg-negative patients with CHB; for virological treatment response rate (undetectable serum HBV DNA): HBeAg-positive patients
[1] = tested on: Hepatitis B virus replication; assay: Secreted HBV DNA quantitation in cell culture supernatants by real-time PCR; assay type: cell-based, Hepatitis B virus (human hepatoma cell lines)
Protocol: (§1) HepG2215 cell line, derived from HepG2 cells, was stably transfected with HBV DNA and supported full HBV replication with production of infectious virions and HBsAg. HepG2215 cells were cultured in 12-well plates, as described previously (7, 8), for 7 days prior to adding the cyclophilin inhibitors.
(§2) The cells were treated with 0.25, 1.0 or 5.0 micrograms/mL of NIM811 or DEB025; cells and supernatants were harvested separately at baseline, 6, 24, 48 and 72 hours after the addition of NIM811 or DEB025, respectively.
(§3) HuH-7 cells were transfected with a plasmid containing a pBlueScript KS(+) vector with a 1.5 HBV DNA genomes of subtype adw2 was used. Subconfluent HuH-7 cells were transfected with 5 μg of plasmid DNA per 60-mm-diameter dish using 10 μl of Superfect reagent (Qiagen, Crawley, UK). The supernatants were replaced 18 h posttransfection with medium supplemented with 10% FCS, and the cells were cultured for 3 days, as described (7).
(§4) Stably transfected (HepG2215) and transiently transfected (HUH-7) cells, producing full HBV virions and HBsAg particles, were treated with a range of Alisporivir concentrations (0.25, 1.0 5.0 or 20 micrograms/ml) alone, telbivudine alone, or combinations of Alisporivir and telbivudine. To determine the involvement of individual cyclophilins, HepG2215 cells were transfected with siRNA-specific for cyclophilin (Cyp) A, C or D and additionally treated with Alisporivir. Cytoplasmic extracts and supernatants were harvested at baseline; 24, 48 and 72 hours post-treatment. The kinetics of antiviral activity was assessed by quantitation of intracellular and secreted HBV-DNA (real-time qPCR) and HBsAg levels (ELISA).
(§5) HBV replication was assessed by quantitation of both viral nucleocapsid-associated HBV DNA (cytoplasmic) and the HBV DNA levels in cell culture supernatants, as described previously (8,9). Nucleocapsid HBV DNA was extracted and quantitated by TaqMan real-time PCR (ABI Prism 7700). Intracellular HBV DNA was normalized with b-actin as a house-keeping gene. Secreted HBV DNA was extracted with QIAmp DNA minikit (Qiagen, Sussex, UK) and also quantitated by TaqMan. The sensitivity of HBV DNA quantitation was verified in each run with serial dilutions of HBV DNA plasmid, as well as the EuroHep HBV DNA standard, as described (9,10).

[2] = tested on: Hepatitis B virus replication; assay: Intracellular (cytoplasmic, nucleocapsid-associated) HBV DNA quantitation by real-time PCR in HBV-transfected hepatoma cells; assay type: cell-based, Hepatitis B virus (human hepatoma cell lines); conditions: for reduction of cellular HBV DNA: FIG. 6
Protocol: as §1, §2, §3, §4, §5

[3] = tested on: Hepatitis B virus replication; assay: Alisporivir treatment of HepG2215 cells silenced for CypA, C or D by siRNA; HBV-DNA and HBsAg levels; assay type: cell-based, Hepatitis B virus (human hepatoma cell line); conditions: greater effects in CypC or CypD silenced cells than CypA silenced cells (p<0.001)
Protocol: To assess the role of cyclophilin A in HBV replication, HepG2215 cells were transfected with siRNA for cyclophilin A and incubated with medium only or with the addition of NIM811 or DEB025. Similarly, the role of Cyclophilin B, C and D in HBV and HDV replication will be evaluated by siRNA specific for CypB, C and D.
as §4, with “Cytoplasmic extracts and supernatants were harvested at baseline; 24, 48 and 72 hours post-treatment.” left out
HepG2215 cells were seeded with the siRNAs (Dharmacon Inc., Lafayette, Colo.) at 50% density and incubated for 48 h. […] Total DNA was extracted from the samples and HBV DNA was quantitated by real time PCR, as above. […] The RNA was reverse transcribed with Quantitect Reverse transcription kit (Qiagen) and cDNA quantitated with SYBR Green Quantitect kit using Quantitect primers (Qiagen, Sussex, UK).

Cc1cn([C@@H]2C[C@@H](O)[C@H](CO)O2)c(=O)[nH]c1=O [telbivudine, reference compound]
rate of undetectable HBV DNA (Hepatitis B virus): 88%
virological treatment response rate (undetectable serum HBV DNA) (Hepatitis B virus): 60%
reduction of secreted HBV DNA ([1]; HepG2215 cells, FIG. 5): reductions
reduction of cellular HBV DNA ([2]; HepG2215 cells): reductions

C/C=C/C[C@@H](C)[C@@H](O)[C@H]1C(=O)N[C@@H](CC)C(=O)N(C)[C@H](C)C(=O)N(CC)[C@@H](C(C)C)C(=O)N[C@@H](C(C)C)C(=O)N(C)[C@@H](CC(C)C)C(=O)N[C@@H](C)C(=O)N[C@H](C)C(=O)N(C)[C@@H](CC(C)C)C(=O)N(C)[C@@H](CC(C)C)C(=O)N(C)[C@@H](C(C)C)C(=O)N1C [Alisporivir]
reduction of secreted HBV-DNA ([1]; HepG2215 and HUH-7 cells, dose-dependent (0.25-20 micrograms/ml), compared with untreated controls, p<0.001): 63%
effect in reducing HBV DNA levels in cell culture supernatants compared with NIM811 ([1]; HepG2215 cells, 5.0 micrograms/mL, FIG. 2): greater effect
reduction of secreted HBV DNA ([1]; HepG2215 cells, FIG. 5): reductions
reduction of secreted HBV DNA ([1]; transiently transfected Huh7 or stably transfected HepG2215 cells, FIG. 3): dose-dependent reduction
reduction of intracellular HBV-DNA ([2]; HepG2215 and HUH-7 cells, dose-dependent (0.25-20 micrograms/ml), compared with untreated controls, p=0.004): 70%
reduction of intracellular HBV DNA compared with NIM811 ([2]; HepG2215 cells, 5 micrograms/mL, 72 h): greater than the reduction observed with NIM811
reduction of intracellular HBV DNA levels ([2]; HepG2215 cells, 5 micrograms/mL, 72 hours, FIG. 1): 10 fold
reduction of cellular HBV DNA ([2]; HepG2215 cells): reductions
reduction of cytoplasmic HBV DNA ([2]; Huh7 and HepG2215 cells, FIG. 4): dose dependent reductions
HBV-DNA levels in Cyp-silenced cells [3]: further reduced
HBsAg levels in Cyp-silenced cells [3]: further reduced

C[C@H](Cn1cnc2c(N)ncnc21)OCP(=O)(O)O [tenofovir]
rate of undetectable HBV DNA (Hepatitis B virus): 91%
virological treatment response rate (undetectable serum HBV DNA) (Hepatitis B virus): 74%

C=C1[C@H](CO)[C@@H](O)C[C@@H]1n1cnc2c(=O)[nH]c(N)nc21 [entecavir]
rate of undetectable HBV DNA (Hepatitis B virus): 90%
virological treatment response rate (undetectable serum HBV DNA) (Hepatitis B virus): 67%
